From ChEMBL document CHEMBL3885881, “DrugMatrix”

Species: Rattus norvegicus
Assay: DrugMatrix - Regimen: Daily Repeat
Format: toxicity, organism-based, Sprague-Dawley
Design: regimen Daily Repeat, gender Male, age 6-8 weeks
Conditions: in vivo, po, route oral GAVAGE, dose level High; for ABSOLUTE BASOPHIL / ABSOLUTE EOSINOPHIL / ABSOLUTE LYMPHOCYTE / ABSOLUTE MONOCYTE / ABSOLUTE SEGMENTED NEUTROPHIL / BASOPHIL / EOSINOPHIL / ERYTHROCYTE COUNT / HEMATOCRIT / HEMOGLOBIN / LEUKOCYTE COUNT / LYMPHOCYTE / MEAN CORPUSCULAR HEMOGLOBIN / MEAN CORPUSCULAR HEMOGLOBIN CONCENTRATION / MEAN CORPUSCULAR VOLUME / MONOCYTE / NEUTROPHIL / NUCLEATED RED BLOOD CELLS / PLATELET COUNT: tissue Blood; for ALANINE AMINOTRANSFERASE / ALBUMIN / ALKALINE PHOSPHATASE / ASPARTATE AMINOTRANSFERASE / BLOOD UREA NITROGEN / CARBON DIOXIDE / CHLORIDE / CHOLESTEROL / CREATINE PHOSPHOKINASE / CREATININE / GLUCOSE / LACTATE DEHYDROGENASE / LIPASE / PHOSPHORUS / POTASSIUM / SODIUM / TOTAL BILIRUBIN / TOTAL PROTEIN / URIC ACID: tissue Plasma
[1] = 1200 mg/kg, 72 h, time 3 day, vehicle .5 % CMC
[2] = 1200 mg/kg, 120 h, time 5 day, vehicle .5 % CMC
[3] = 2500 mg/kg, 72 h, time 3 day, vehicle 100 % WATER
[4] = 2500 mg/kg, 120 h, time 5 day, vehicle 100 % WATER

O=C(C1CCCCC1)N1CC(=O)N2CCc3ccccc3C2C1 (configuration not stated) [PRAZIQUANTEL]
ABSOLUTE BASOPHIL [1]: 0 CELLS/uL | ABSOLUTE EOSINOPHIL [1]: 48 CELLS/uL | ABSOLUTE LYMPHOCYTE [1]: 14636 CELLS/uL | ABSOLUTE MONOCYTE [1]: 440 CELLS/uL | ABSOLUTE SEGMENTED NEUTROPHIL [1]: 1476 CELLS/uL | BASOPHIL [1]: 0% | EOSINOPHIL [1]: 0.33% | ERYTHROCYTE COUNT [1]: 6.1 x10E6/uL | HEMATOCRIT [1]: 37.8% | HEMOGLOBIN [1]: 14.07 G/DL | LEUKOCYTE COUNT [1]: 16.6 x10E3/uL | LYMPHOCYTE [1]: 88% | MEAN CORPUSCULAR HEMOGLOBIN [1]: 23.1 pg | MEAN CORPUSCULAR HEMOGLOBIN CONCENTRATION [1]: 37.23 G/DL | MEAN CORPUSCULAR VOLUME [1]: 62.03 fL | MONOCYTE [1]: 2.67% | NEUTROPHIL [1]: 9% | NUCLEATED RED BLOOD CELLS [1]: 0 /100WBC | PLATELET COUNT [1]: 1207 x10E3/uL | ALANINE AMINOTRANSFERASE [1]: 78.33 u/L | ALBUMIN [1]: 4.17 G/DL | ALKALINE PHOSPHATASE [1]: 420.67 u/L | ASPARTATE AMINOTRANSFERASE [1]: 106 u/L | BLOOD UREA NITROGEN [1]: 16.67 mg/dL | CARBON DIOXIDE [1]: 21.67 mmol/L | CHLORIDE [1]: 106 MEQ/L | CHOLESTEROL [1]: 113 mg/dL | CREATINE PHOSPHOKINASE [1]: 468 u/L | CREATININE [1]: 0.27 mg/dL | GLUCOSE [1]: 155.33 mg/dL | LACTATE DEHYDROGENASE [1]: 155.67 u/L | LIPASE [1]: 12.33 u/L | PHOSPHORUS [1]: 12.53 mg/dL | POTASSIUM [1]: 6.11 MEQ/L | SODIUM [1]: 146.03 MEQ/L | TOTAL BILIRUBIN [1]: 0.17 mg/dL | TOTAL PROTEIN [1]: 5.9 G/DL | URIC ACID [1]: 1.8 mg/dL | ABSOLUTE BASOPHIL [2]: 0 CELLS/uL | ABSOLUTE EOSINOPHIL [2]: 0 CELLS/uL | ABSOLUTE LYMPHOCYTE [2]: 15049.33 CELLS/uL | ABSOLUTE MONOCYTE [2]: 624 CELLS/uL | ABSOLUTE SEGMENTED NEUTROPHIL [2]: 1126.67 CELLS/uL | BASOPHIL [2]: 0% | EOSINOPHIL [2]: 0% | ERYTHROCYTE COUNT [2]: 6.07 x10E6/uL | HEMATOCRIT [2]: 37.33% | HEMOGLOBIN [2]: 14 G/DL | LEUKOCYTE COUNT [2]: 16.8 x10E3/uL | LYMPHOCYTE [2]: 89.67% | MEAN CORPUSCULAR HEMOGLOBIN [2]: 23.07 pg | MEAN CORPUSCULAR HEMOGLOBIN CONCENTRATION [2]: 37.53 G/DL | MEAN CORPUSCULAR VOLUME [2]: 61.5 fL | MONOCYTE [2]: 3.67% | NEUTROPHIL [2]: 6.67% | NUCLEATED RED BLOOD CELLS [2]: 0 /100WBC | PLATELET COUNT [2]: 1413.33 x10E3/uL | ALANINE AMINOTRANSFERASE [2]: 57.67 u/L | ALBUMIN [2]: 4.2 G/DL | ALKALINE PHOSPHATASE [2]: 351.33 u/L | ASPARTATE AMINOTRANSFERASE [2]: 77 u/L | BLOOD UREA NITROGEN [2]: 17.67 mg/dL | CARBON DIOXIDE [2]: 27.33 mmol/L | CHLORIDE [2]: 103.67 MEQ/L | CHOLESTEROL [2]: 102.33 mg/dL | CREATINE PHOSPHOKINASE [2]: 250.67 u/L | CREATININE [2]: 0.22 mg/dL | GLUCOSE [2]: 153 mg/dL | LACTATE DEHYDROGENASE [2]: 208.67 u/L | LIPASE [2]: 12.33 u/L | PHOSPHORUS [2]: 13.13 mg/dL | POTASSIUM [2]: 7.47 MEQ/L | SODIUM [2]: 145.47 MEQ/L | TOTAL BILIRUBIN [2]: 0.17 mg/dL | TOTAL PROTEIN [2]: 6.33 G/DL | URIC ACID [2]: 2.3 mg/dL

CCN(CC)CCOC(=O)c1ccc(N)cc1 [PROCAINE]
ABSOLUTE BASOPHIL [3]: 0 CELLS/uL | ABSOLUTE EOSINOPHIL [3]: 0 CELLS/uL | ABSOLUTE LYMPHOCYTE [3]: 12849.67 CELLS/uL | ABSOLUTE MONOCYTE [3]: 127.33 CELLS/uL | ABSOLUTE SEGMENTED NEUTROPHIL [3]: 789.67 CELLS/uL | BASOPHIL [3]: 0% | EOSINOPHIL [3]: 0% | ERYTHROCYTE COUNT [3]: 5.53 x10E6/uL | HEMATOCRIT [3]: 34.97% | HEMOGLOBIN [3]: 13.83 G/DL | LEUKOCYTE COUNT [3]: 13.77 x10E3/uL | LYMPHOCYTE [3]: 93.33% | MEAN CORPUSCULAR HEMOGLOBIN [3]: 24.97 pg | MEAN CORPUSCULAR HEMOGLOBIN CONCENTRATION [3]: 39.63 G/DL | MEAN CORPUSCULAR VOLUME [3]: 63.1 fL | MONOCYTE [3]: 1% | NEUTROPHIL [3]: 5.67% | NUCLEATED RED BLOOD CELLS [3]: 0 /100WBC | PLATELET COUNT [3]: 1276.67 x10E3/uL | ALANINE AMINOTRANSFERASE [3]: 52.33 u/L | ALBUMIN [3]: 4.3 G/DL | ALKALINE PHOSPHATASE [3]: 353.67 u/L | ASPARTATE AMINOTRANSFERASE [3]: 121.67 u/L | BLOOD UREA NITROGEN [3]: 13.67 mg/dL | CARBON DIOXIDE [3]: 25.33 mmol/L | CHLORIDE [3]: 103.33 MEQ/L | CHOLESTEROL [3]: 42.33 mg/dL | CREATINE PHOSPHOKINASE [3]: 550.67 u/L | CREATININE [3]: 0.21 mg/dL | GLUCOSE [3]: 173 mg/dL | LACTATE DEHYDROGENASE [3]: 675.33 u/L | LIPASE [3]: 9 u/L | PHOSPHORUS [3]: 14.53 mg/dL | POTASSIUM [3]: 7.06 MEQ/L | SODIUM [3]: 146.03 MEQ/L | TOTAL BILIRUBIN [3]: 0.17 mg/dL | TOTAL PROTEIN [3]: 5.9 G/DL | URIC ACID [3]: 2.57 mg/dL | ABSOLUTE BASOPHIL [4]: 0 CELLS/uL | ABSOLUTE EOSINOPHIL [4]: 0 CELLS/uL | ABSOLUTE LYMPHOCYTE [4]: 14457.33 CELLS/uL | ABSOLUTE MONOCYTE [4]: 61 CELLS/uL | ABSOLUTE SEGMENTED NEUTROPHIL [4]: 915 CELLS/uL | BASOPHIL [4]: 0% | EOSINOPHIL [4]: 0% | ERYTHROCYTE COUNT [4]: 6.15 x10E6/uL | HEMATOCRIT [4]: 37.43% | HEMOGLOBIN [4]: 14.7 G/DL | LEUKOCYTE COUNT [4]: 15.43 x10E3/uL | LYMPHOCYTE [4]: 93.33% | MEAN CORPUSCULAR HEMOGLOBIN [4]: 23.93 pg | MEAN CORPUSCULAR HEMOGLOBIN CONCENTRATION [4]: 39.3 G/DL | MEAN CORPUSCULAR VOLUME [4]: 60.87 fL | MONOCYTE [4]: 0.33% | NEUTROPHIL [4]: 6.33% | NUCLEATED RED BLOOD CELLS [4]: 0 /100WBC | PLATELET COUNT [4]: 1379 x10E3/uL | ALANINE AMINOTRANSFERASE [4]: 40 u/L | ALBUMIN [4]: 4.73 G/DL | ALKALINE PHOSPHATASE [4]: 323.33 u/L | ASPARTATE AMINOTRANSFERASE [4]: 94 u/L | BLOOD UREA NITROGEN [4]: 17 mg/dL | CARBON DIOXIDE [4]: 26 mmol/L | CHLORIDE [4]: 101.67 MEQ/L | CHOLESTEROL [4]: 33.67 mg/dL | CREATINE PHOSPHOKINASE [4]: 281 u/L | CREATININE [4]: 0.24 mg/dL | GLUCOSE [4]: 166.67 mg/dL | LACTATE DEHYDROGENASE [4]: 198.33 u/L | LIPASE [4]: 9.67 u/L | PHOSPHORUS [4]: 12.67 mg/dL | POTASSIUM [4]: 7.55 MEQ/L | SODIUM [4]: 143.33 MEQ/L | TOTAL BILIRUBIN [4]: 0.2 mg/dL | TOTAL PROTEIN [4]: 6.67 G/DL | URIC ACID [4]: 2 mg/dL
